Measurements from ChEMBL document CHEMBL3396993, “Inhibition of monoamine oxidase by indole-5,6-dicarbonitrile derivatives” (Bioorg Med Chem Lett, 2015).

Tests used:
[1] = biological target: T1, Amine oxidase [flavin-containing] A (Homo sapiens, UniProt P21397);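 also: recombinant human enzyme, activity followed as kynuramine conversion to 4-hydroxyquinoline, detected by spectrofluorometry, inhibition measured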
T1 sequence (P21397 whole entry): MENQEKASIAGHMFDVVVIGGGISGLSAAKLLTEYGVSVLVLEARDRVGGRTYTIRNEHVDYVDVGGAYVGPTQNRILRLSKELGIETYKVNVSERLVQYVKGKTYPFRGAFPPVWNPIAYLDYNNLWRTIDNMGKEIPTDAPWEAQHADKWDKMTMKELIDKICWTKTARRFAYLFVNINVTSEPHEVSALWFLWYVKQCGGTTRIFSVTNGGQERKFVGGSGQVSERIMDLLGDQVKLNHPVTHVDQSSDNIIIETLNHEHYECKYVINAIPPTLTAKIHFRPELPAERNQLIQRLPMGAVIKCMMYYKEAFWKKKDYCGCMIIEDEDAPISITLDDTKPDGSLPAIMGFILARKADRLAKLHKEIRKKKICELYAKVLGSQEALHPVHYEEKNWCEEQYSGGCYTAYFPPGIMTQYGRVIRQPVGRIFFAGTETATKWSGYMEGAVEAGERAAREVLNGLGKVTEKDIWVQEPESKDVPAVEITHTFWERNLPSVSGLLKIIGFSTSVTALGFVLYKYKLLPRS

[2] = biological target: T2, Amine oxidase [flavin-containing] B (Homo sapiens, UniProt P27338);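 also: recombinant enzyme, kynuramine substrate converted to 4-hydroxyquinoline, product quantified by spectrofluorometry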
T2 sequence (P27338 whole entry): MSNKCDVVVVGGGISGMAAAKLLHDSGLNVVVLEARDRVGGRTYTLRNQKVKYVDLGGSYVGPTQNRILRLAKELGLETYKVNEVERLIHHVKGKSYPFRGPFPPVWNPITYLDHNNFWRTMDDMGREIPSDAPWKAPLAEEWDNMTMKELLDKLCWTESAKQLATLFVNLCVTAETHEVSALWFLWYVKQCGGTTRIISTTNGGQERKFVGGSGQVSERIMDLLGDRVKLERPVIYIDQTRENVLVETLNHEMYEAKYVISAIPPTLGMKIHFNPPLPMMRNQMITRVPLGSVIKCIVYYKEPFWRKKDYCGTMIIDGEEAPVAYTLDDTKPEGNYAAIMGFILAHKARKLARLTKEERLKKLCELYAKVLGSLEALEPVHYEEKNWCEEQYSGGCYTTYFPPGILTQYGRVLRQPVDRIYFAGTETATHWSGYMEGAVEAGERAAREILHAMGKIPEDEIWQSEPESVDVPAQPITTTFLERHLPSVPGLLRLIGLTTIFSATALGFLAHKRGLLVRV

[3] = biological target: T1, Amine oxidase [flavin-containing] A; experiment: Reversible inhibition of human recombinant MAO-A using kynuramine substrate assessed as enzyme activity recovered at 4 times of IC50 concentration incubated for 15 mins and subsequently dialyzed for 24 hrs relative to control; parameters: scale not given: the % may be the effect or the level left; conditions: 0.25 h
[4] = biological target: T2, Amine oxidase [flavin-containing] B; experiment: Reversible inhibition of human recombinant MAO-B using kynuramine substrate assessed as enzyme activity recovered at 4 times of IC50 concentration incubated for 15 mins and subsequently dialyzed for 24 hrs relative to control; parameters: scale not given: the % may be the effect or the level left; conditions: 0.25 h
[5] = biological target: T1, Amine oxidase [flavin-containing] A; experiment: Reversible inhibition of human recombinant MAO-A using kynuramine substrate assessed as enzyme activity recovered at 4 times of IC50 concentration incubated for 15 mins relative to control; parameters: scale not given: the % may be the effect or the level left; conditions: 0.25 h
[6] = biological target: T2, Amine oxidase [flavin-containing] B; experiment: Reversible inhibition of human recombinant MAO-B using kynuramine substrate assessed as enzyme activity recovered at 4 times of IC50 concentration incubated for 15 mins relative to control; parameters: scale not given: the % may be the effect or the level left; conditions: 0.25 h
[7] = biological target: T1, Amine oxidase [flavin-containing] A; experiment: Reversible inhibition of human recombinant MAO-A using kynuramine substrate assessed as enzyme activity recovered at 4 times of IC50 concentration incubated for 15 mins and subsequently dialyzed for 24 hrs relative to control in presence of pargyline; parameters: scale not given: the % may be the effect or the level left; conditions: 0.25 h
[8] = biological target: T2, Amine oxidase [flavin-containing] B; experiment: Reversible inhibition of human recombinant MAO-B using kynuramine substrate assessed as enzyme activity recovered at 4 times of IC50 concentration incubated for 15 mins and subsequently dialyzed for 24 hrs relative to control in presence of (R)-deprenyl; parameters: scale not given: the % may be the effect or the level left; conditions: 0.25 h
[9] = biological target: T1, Amine oxidase [flavin-containing] A; experiment: Inhibition of human recombinant MAO-A assessed as kynuramine substrate by Lineweaver-Burk plot analysis
[10] = biological target: T2, Amine oxidase [flavin-containing] B; experiment: Inhibition of human recombinant MAO-B assessed as kynuramine substrate by Lineweaver-Burk plot analysis

Structure (SMILES)	IC50 [1]	IC50 [2]	other results
COc1ccc(-c2c(Br)c3cc(C#N)c(C#N)cc3n2OC)cc1	> 100 µM	> 100 µM	
Cn1c(-c2cccs2)c(Cl)c2cc(C#N)c(C#N)cc21	0.035 µM	> 100 µM	
N#Cc1ccc(OCc2ccc(Br)cc2)cc1C#N	0.0066 µM		
N#Cc1ccc(OC/C=C/c2ccccc2)cc1C#N		0.642 µM	
Cc1ccc(-c2[nH]c3cc(C#N)c(C#N)cc3c2Cl)cc1	0.014 µM	0.017 µM	Activity [3]: 77%; Activity [4]: 78%; Activity [5]: 43%; Activity [6]: 37%; Activity [7]: 1.6%; Activity [8]: 3.1%; Ki [9]: 0.018 µM; Ki [10]: 0.016 µM
Cc1ccc(-c2c(Br)c3cc(C#N)c(C#N)cc3n2O)cc1	2.19 µM	2.86 µM	
COc1ccc(-c2c(Cl)c3cc(C#N)c(C#N)cc3n2C)cc1	0.129 µM	> 100 µM	
Cc1ccc(-c2c(Cl)c3cc(C#N)c(C#N)cc3n2C)cc1	19.4 µM	> 100 µM	
N#Cc1cc2[nH]c(-c3cccs3)c(Cl)c2cc1C#N	0.118 µM	1.27 µM	
COc1ccc(-c2c(Br)c3cc(C#N)c(C#N)cc3n2O)cc1	0.726 µM	1.52 µM	
N#Cc1cc2[nH]c(-c3ccccc3)c(Cl)c2cc1C#N	0.121 µM	0.144 µM	
COc1ccc(-c2[nH]c3cc(C#N)c(C#N)cc3c2Cl)cc1	0.004 µM	0.02 µM	
Cn1c(-c2ccccc2)c(Cl)c2cc(C#N)c(C#N)cc21	0.142 µM	> 100 µM	
N#Cc1cc2c(Br)c(-c3ccccc3)n(O)c2cc1C#N	3.48 µM	11.9 µM	
